Measurements taken from patent US4512992A, “Treatment with dialkoxy pyridopyrimidine compounds” (Burroughs Wellcome Co., priority 1981, dated 1985).

Tests used:
[1] = biological target: T1, mammalian dihydrofolate reductase (DHFR) (Rattus norvegicus, UniProt Q920D2); experiment: Inhibition of mammalian dihydrofolate reductase (DHFR) partially purified from rat liver; format: biochemical
T1 construct: DHFR partially purified from rat liver; from tissue; host or cells: rat liver
T1 sequence (Q920D2 1-187): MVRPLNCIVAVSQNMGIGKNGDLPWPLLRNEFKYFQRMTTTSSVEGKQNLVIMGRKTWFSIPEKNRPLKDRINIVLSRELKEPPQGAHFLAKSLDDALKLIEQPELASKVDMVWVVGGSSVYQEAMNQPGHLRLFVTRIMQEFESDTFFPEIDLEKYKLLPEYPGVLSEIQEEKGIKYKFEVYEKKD
Method: Inhibition of Mammalian Dihydrofolate Reductase (DHFR) by […]-5-methyl-6-benzylpyrido(2,3-d)pyrimidines
The inhibitory effect of the test compounds against DHFR partially purified from rat liver was determined. An IC50 of 5×10^-8 M or less is considered significant potency, an IC50 of 1×10^-8 M or less being particularly significant potency.

[2] = biological target: Histamine N-Methyltransferase (HMT) (Homo sapiens, UniProt P50135); experiment: Inhibition of histamine N-methyltransferase (HMT); format: biochemical
Method: Inhibition of Histamine N-Methyltransferase
The effect of the test compounds used in Example 2 against HMT was determined. An inhibition of less than 20% was considered acceptable.

Chain of Histamine N-Methyltransferase (HMT) (P50135 whole entry, species assumed): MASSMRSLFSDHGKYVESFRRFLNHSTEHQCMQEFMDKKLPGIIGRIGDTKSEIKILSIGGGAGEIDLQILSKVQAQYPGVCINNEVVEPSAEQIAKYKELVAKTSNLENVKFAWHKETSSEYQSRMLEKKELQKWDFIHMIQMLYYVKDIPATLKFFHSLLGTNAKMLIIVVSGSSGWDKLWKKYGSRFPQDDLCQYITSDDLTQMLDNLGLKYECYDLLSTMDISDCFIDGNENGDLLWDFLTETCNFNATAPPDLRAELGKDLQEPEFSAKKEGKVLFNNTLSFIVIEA

COc1ccc(Cc2cnc3nc(N)nc(N)c3c2C)cc1OC [2,4-Diamino-6-(3,4-dimethoxybenzyl)-5-methylpyrido[2,3-d]pyrimidine]
inhibitor of mammalian DHFR (in words) [1]: very potent inhibitor of mammalian DHFR | inhibitory activity against HMT (in words) [2]: acceptably low inhibitory activity against HMT
